Test [1] has as its system Nrf2 (Keap1-NRF2 nuclear translocation). As to the kind of experiment: U2OS translocation assay (PathHunter U2OS Keap1-NRF2 Nuclear Translocation Cell Line). The format is cell-based. Particulars: Homo sapiens, U2OS, 3 h, read-out: CELLULAR U2OS EC50 (nM), U2OS Keap1-NRF2 nuclear translocation cells, 3 h incubation, luminescence, normalized between 1% DMSO and 10 μM andrographolide. The essentials:
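Enzyme-fragment complementation read-out: luminescence after 60 min of detection reagent at room temperature, following a 3 h, 37° C compound exposure of engineered U2OS Keap1-NRF2 translocation cells (1% FBS medium). Signal scaled from 1% DMSO basal to 10 μM andrographolide maximum.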

In the next test the target is T1, Keap1 (A321-C624) (h) (Homo sapiens, UniProt Q14145).
T1 construct: His-Thromb-KEAP1(A321-C624) acquired from Novalix (batch PU-P01) was immobilized covalently by amine coupling; His tag (N); thrombin cleavage site (Thromb) (N); purchased Novalix batch PU-P01
T1 sequence (Q14145 321-624): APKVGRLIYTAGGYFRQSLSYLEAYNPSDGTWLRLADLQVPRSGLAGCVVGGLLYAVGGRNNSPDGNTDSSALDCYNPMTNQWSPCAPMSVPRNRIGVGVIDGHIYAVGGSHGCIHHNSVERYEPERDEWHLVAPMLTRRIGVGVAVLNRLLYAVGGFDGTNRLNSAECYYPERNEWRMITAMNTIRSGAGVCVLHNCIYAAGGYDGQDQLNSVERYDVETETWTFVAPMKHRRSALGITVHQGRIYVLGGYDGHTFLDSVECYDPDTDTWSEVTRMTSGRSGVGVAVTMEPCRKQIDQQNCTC
As to the kind of experiment: Surface Plasmon Resonance binding assay to Kelch domain of KEAP1. The settings on record: Biacore T200, 25° C., immobilized His-Thromb-KEAP1(A321-C624), single cycle kinetics, KD=kd/ka from 1:1 fit; read-out: Keap1 (A321-C624) (h) direct/SPR (KD). The gist of the method: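 His-Thromb-KEAP1(A321-C624) amine-coupled on CM5 chip to 1250 RU; amine blank reference. Run at 25° C in HEPES pH 7.4, 150 mM NaCl, 3 mM EDTA, 1 mM TCEP, 0.05% P20, 5% DMSO; 180 s association, 720 s dissociation, 50 μL/min. KD = kd/ka from 1:1 kinetic fit, double-referenced, DMSO solvent-corrected.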

For the compound `Cc1c2ccc3c1nnn3CCCCOc1ccc3c(c1)CN(Cc1cccc(c1)C2CC(=O)O)S(=O)(=O)O3` (stereo not shown) [Example 6, [31-Methyl-27,27-dioxo-21,26-dioxa-27λ^6-thia-1,14,15,16-tetraazahexacyclo[20.5.3.1^3,70.1^9,130.0^12,160.0^25,29]dotriaconta-3(32),4,6,9(31),10,12,14,22,24,29-decaen-8-yl]acetic acid], the EC50 in test [1] stood at 1330 nM. Further, on Keap1 (A321-C624) (h), the Kd was 33.7 nM.
In the same order, the values of `Cc1ccc2cc1CN1Cc3cc(ccc3OS1(=O)=O)OCCCCn1nnc3c(C)c(ccc31)[C@H]2CC(=O)O` [Example 7a, [(8S)-4,31-Dimethyl-27,27-dioxo-21,26-dioxa-27λ^6-thia-1,14,15,16-tetraazahexacyclo[20.5.3.1^3,70.1^9,130.0^12,160.0^25,29]dotriaconta-3(32),4,6,9(31),10,12,14,22,24,29-decaen-8-yl]acetic acid] are 23 nM and 1.07 nM.
For `Cc1ccc2cc1CN1Cc3cc(ccc3OS1(=O)=O)OCCCCn1nnc3c(C)c(ccc31)[C@@H]2CC(=O)O` [Example 7b, [(8R)-4,31-dimethyl-27,27-dioxo-21,26-dioxa-27λ^6-thia-1,14,15,16-tetraazahexacyclo[20.5.3.1^3,70.1^9,130.0^12,160.0^25,29]dotriaconta-3(32),4,6,9(31),10,12,14,22,24,29-decaen-8-yl]acetic acid], in that order: 290 nM and 4.86 nM.
In the same order, the values of `Cc1c2ccc3c1nnn3CCCCOc1ccc3c(c1)CN(Cc1cc(ccc1F)C2CC(=O)O)S(=O)(=O)O3` (stereo not shown) [Example 14, [4-Fluoro-31-methyl-27,27-dioxo-21,26-dioxa-27λ^6-thia-1,14,15,16-tetraazahexacyclo[20.5.3.1^3,70.1^9,130.0^12,160.0^25,29]dotriaconta-3(32),4,6,9(31),10,12,14,22,24,29-decaen-8-yl]acetic acid] are 582 nM and 14.2 nM.
Take `Cc1ccc2cc1[C@@H](C)N1Cc3cc(ccc3OS1(=O)=O)OCCCCCCn1nnc3c(C)c(ccc31)[C@@H]2CC(=O)O` [Example 19a, [(2R,8R)-2,4,33-Trimethyl-29,29-dioxo-23,28-dioxa-29λ^6-thia-1,14,15,16-tetraazahexacyclo[22.5.3.1^3,70.1^9,130.0^12,160.0^27,31]tetratriaconta-3(34),4,6,9(33),10,12,14,24,26,31-decaen-8-yl]acetic acid]: the EC50 in test [1] turned out to be 73.6 nM. For the same compound, the Kd at Keap1 (A321-C624) (h) was found to be 1.34 nM.
In the same order, the values of `Cc1ccc2cc1[C@@H](C)N1Cc3cc(ccc3OS1(=O)=O)OCCCCCCn1nnc3c(C)c(ccc31)[C@H]2CC(=O)O` [Example 19b, [(2R,8S)-2,4,33-trimethyl-29,29-dioxo-23,28-dioxa-29λ^6-thia-1,14,15,16-tetraazahexacyclo[22.5.3.1^3,70.1^9,130.0^12,160.0^27,31]tetratriaconta-3(34),4,6,9(33),10,12,14,24,26,31-decaen-8-yl]acetic acid] are 2.76 nM and 0.646 nM.
As to `Cc1ccc2cc1[C@@H](C)N1Cc3cc(ccc3OS1(=O)=O)OCCCCCn1nnc3c(C)c(ccc31)[C@H]2CC(=O)O` [Example 20a, [(2R,8S)-2,4,32-Trimethyl-28,28-dioxo-22,27-dioxa-28λ^6-thia-1,14,15,16-tetraazahexacyclo[21.5.3.1^3,70.1^9,130.0^12,160.0^26,30]tritriaconta-3(33),4,6,9(32),10,12,14,23,25,30-decaen-8-yl]acetic acid], the EC50 in test [1] is 1.99 nM. Besides, the Kd on Keap1 (A321-C624) (h) was 0.549 nM.
For `Cc1ccc2cc1[C@@H](C)N1Cc3cc(ccc3OS1(=O)=O)OCCCCCn1nnc3c(C)c(ccc31)[C@@H]2CC(=O)O` [Example 20b, [(2R,8R)-2,4,32-trimethyl-28,28-dioxo-22,27-dioxa-28λ^6-thia-1,14,15,16-tetraazahexacyclo[21.5.3.1^3,70.1^9,130.0^12,160.0^26,30]tritriaconta-3(33),4,6,9(32),10,12,14,23,25,30-decaen-8-yl]acetic acid], in that order: 131 nM and 2.3 nM.
Regarding `Cc1ccc2cc1[C@@H](C)N1Cc3cc(ccc3OS1(=O)=O)OCCCN(C)CCn1nnc3c(C)c(ccc31)[C@H]2CC(=O)O` [Example 21a, [(2R,8S)-2,4,19,33-Tetramethyl-29,29-dioxo-23,28-dioxa-29λ^6-thia-1,14,15,16,19-pentaazahexacyclo[22.5.3.1^3,70.1^9,130.0^12,160.0^27,31]tetratriaconta-3(34),4,6,9(33),10,12,14,24,26,31-decaen-8-yl]acetic acid], in test [1], the EC50 worked out at 10.9 nM. Moreover, at Keap1 (A321-C624) (h), the Kd turned out to be 2.55 nM.
On to `Cc1ccc2cc1[C@@H](C)N1Cc3cc(ccc3OS1(=O)=O)OCCCN(C)CCn1nnc3c(C)c(ccc31)[C@@H]2CC(=O)O` [Example 21b, [(2R,8R)-2,4,19,33-tetramethyl-29,29-dioxo-23,28-dioxa-29λ^6-thia-1,14,15,16,19-pentaazahexacyclo[22.5.3.1^3,70.1^9,130.0^12,160.0^27,31]tetratriaconta-3(34),4,6,9(33),10,12,14,24,26,31-decaen-8-yl]acetic acid], for which the half-maximal effective concentration (EC50) in test [1] worked out at 166 nM. Moreover, the Kd on Keap1 (A321-C624) (h) turned out to be 20.8 nM.
For `COc1cc2cc3c1OS(=O)(=O)N(C3)[C@H](C)c1cc(ccc1C)[C@@H](CC(=O)O)c1ccc3c(nnn3CCCCO2)c1C` [Example 23a, [(2R,8R)-24-Methoxy-2,4,31-trimethyl-27,27-dioxo-21,26-dioxa-27λ^6-thia-1,14,15,16-tetraazahexacyclo[20.5.3.1^3,70.1^9,130.0^12,160.0^25,29]dotriaconta-3(32),4,6,9(31),10,12,14,22,24,29-decaen-8-yl]acetic acid], in that order: 3160 nM and 50.5 nM.
For `COc1cc2cc3c1OS(=O)(=O)N(C3)[C@H](C)c1cc(ccc1C)[C@H](CC(=O)O)c1ccc3c(nnn3CCCCO2)c1C` [Example 23b, [(2R,8S)-24-methoxy-2,4,31-trimethyl-27,27-dioxo-21,26-dioxa-27λ^6-thia-1,14,15,16-tetraazahexacyclo[20.5.3.1^3,70.1^9,130.0^12,160.0^25,29]dotriaconta-3(32),4,6,9(31),10,12,14,22,24,29-decaen-8-yl]acetic acid], in that order: 344 nM and 8.8 nM.
In the same order, the values of `Cc1ccc2cc1[C@@H](C)N1Cc3cc(ccc3OS1(=O)=O)OCCOCCCn1nnc3c(C)c(ccc31)[C@H]2CC(=O)O` [Example 26a, [(2R,8S)-2,4,33-Trimethyl-29,29-dioxo-20,23,28-trioxa-29λ^6-thia-1,14,15,16-tetraazahexacyclo[22.5.3.1^3,70.1^9,130.0^12,160.0^27,31]tetratriaconta-3(34),4,6,9(33),10,12,14,24,26,31-decaen-8-yl]acetic acid] are 11.3 nM and 3.4 nM.
Turning to `Cc1ccc2cc1[C@@H](C)N1Cc3cc(ccc3OS1(=O)=O)OCCOCCCn1nnc3c(C)c(ccc31)[C@@H]2CC(=O)O` [Example 26b, [(2R,8R)-2,4,33-trimethyl-29,29-dioxo-20,23,28-trioxa-29λ^6-thia-1,14,15,16-tetraazahexacyclo[22.5.3.1^3,70.1^9,130.0^12,160.0^27,31]tetratriaconta-3(34),4,6,9(33),10,12,14,24,26,31-decaen-8-yl]acetic acid], the EC50 in test [1] was determined as 88.8 nM. Further, the Kd at Keap1 (A321-C624) (h) turned out to be 12.2 nM.

These data come from US12643912B2, “Macrocyclic compounds, a process for their preparation and pharmaceutical compositions containing them” (LES LABORATOIRES SERVIER, priority 2020, dated 2026).
